Test results as given in patent US6355799B1, “Substituted benzene compounds, process for their preparation, and herbicidal and defoliant compositions containing them” (ISK Americas Incorporated, priority 1997, dated 2002).

Experiments:
Assay type in all cases: in vivo
[1] = tested on: barnyardgrass (Echinochloa crus-galli, ECHCG); test: Pre-emerge test, greenhouse herbicide activity screening; details: rated 14 days after application, 0 = no damage, 100 = complete death
Outline: (§1)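 Visual ratings on a 0-100 scale (0 no damage, 100 all plants dead) were taken at 14 days after treatment. Rates of 15-1000 g ai/ha in acetone, 187 l/ha, were sprayed onto soil one day after planting (pre-emerge) or onto 2-3 leaf plants with 0.25% v/v surfactant (post-emerge).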

[2] = tested on: green foxtail (Setaria viridis, SETVI); test: as above; details: rated 14 days after application, 0 = no damage, 100 = complete death
Outline: as §1

[3] = tested on: large crabgrass (Digitaria sanguinalis, DIGSA); test: as above; details: rated 14 days after application, 0 = no damage, 100 = complete death
Outline: as §1

[4] = tested on: velvetleaf (Abutilon theophrasti, ABUTH); test: as above; details: rated 14 days after application, 0 = no damage, 100 = complete death
Outline: as §1

[5] = tested on: sicklepod (Cassia obtusifolia, CASOB); test: as above; details: rated 14 days after application, 0 = no damage, 100 = complete death
Outline: as §1

[6] = tested on: johnsongrass (Sorghum halepense, SORHA); test: as above; details: rated 14 days after application, 0 = no damage, 100 = complete death
Outline: as §1

[7] = tested on: ivyleaf morningglory (Ipomoea hederacea, IPOHE); test: as above; details: rated 14 days after application, 0 = no damage, 100 = complete death
Outline: as §1

[8] = tested on: lambsquarters (Chenopodium album, CHEAL); test: as above; details: rated 14 days after application, 0 = no damage, 100 = complete death
Outline: as §1

[9] = tested on: upland rice (Oryza sp., var. Tebonnet, RICE); test: Pre-emerge test, crop safety; details: rated 14 days after application, 0 = no damage, 100 = complete death
Outline: (§2)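 Fourteen days after spraying, crop and weed injury was graded visually from 0, no effect, to 100, every plant dead. Test substances were dissolved in acetone and applied at 15–1000 g ai/ha with a flat-fan nozzle. Application was either pre-emergence, one day after sowing, or post-emergence at the 2–3 leaf stage.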

[10] = tested on: field corn (Zea mays L., var. Dekalb 535, CORN); test: Pre-emerge test, crop safety; details: rated 14 days after application, 0 = no damage, 100 = complete death
Outline: as §2

[11] = tested on: barnyardgrass (Echinochloa crus-galli, ECHCG); test: Post-emerge test, greenhouse herbicide activity screening; details: post-emerge, 14 days after application, rating scale 0-100
Outline: (§3)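 Applied at 15–1000 g ai/ha from acetone in 187 l/ha spray volume. Post-emergence applications included 0.25% v/v non-ionic surfactant and reached plants sown 8–21 days before. Pre-emergence applications were incorporated by surface watering. Efficacy or crop damage was rated on a 0–100 scale after 14 days.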

[12] = tested on: green foxtail (Setaria viridis, SETVI); test: as above; details: post-emerge, 14 days after application, rating scale 0-100
Outline: as §3

[13] = tested on: large crabgrass (Digitaria sanguinalis, DIGSA); test: as above; details: post-emerge, 14 days after application, rating scale 0-100
Outline: as §3

[14] = tested on: velvetleaf (Abutilon theophrasti, ABUTH); test: as above; details: post-emerge, 14 days after application, rating scale 0-100
Outline: as §3

[15] = tested on: sicklepod (Cassia obtusifolia, CASOB); test: as above; details: post-emerge, 14 days after application, rating scale 0-100
Outline: as §3

[16] = tested on: johnsongrass (Sorghum halepense, SORHA); test: as above; details: post-emerge, 14 days after application, rating scale 0-100
Outline: as §3

[17] = tested on: ivyleaf morningglory (Ipomoea hederacea, IPOHE); test: as above; details: post-emerge, 14 days after application, rating scale 0-100
Outline: as §3

[18] = tested on: lambsquarters (Chenopodium album, CHEAL); test: as above; details: post-emerge, 14 days after application, rating scale 0-100
Outline: as §3

[19] = tested on: redroot pigweed (Amaranthus retroflexus, AMARE); test: as above; details: post-emerge, 14 days after application, rating scale 0-100
Outline: as §3

[20] = tested on: common ragweed (Ambrosia artemisizfolia L., AMBEL); test: as above; details: post-emerge, 14 days after application, rating scale 0-100
Outline: as §3

[21] = tested on: upland rice (Oryza sp., var. Tebonnet, RICE); test: Post-emerge test, crop safety; details: post-emerge, 14 days after application, rating scale 0-100
Outline: as §1

[22] = tested on: field corn (Zea mays L., var. Dekalb 535, CORN); test: Post-emerge test, crop safety; details: post-emerge, 14 days after application, rating scale 0-100
Outline: as §1

[23] = tested on: redroot pigweed (Amaranthus retroflexus, AMARE); test: Pre-emerge test, greenhouse herbicide activity screening; details: rated 14 days after application, 0 = no damage, 100 = complete death
Outline: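 Compounds in acetone were track-sprayed at 15-1000 g ai/ha (187 l/ha) on sandy loam pots: pre-emerge one day after seeding, post-emerge at 2-3 leaf stage with 0.25% v/v non-ionic surfactant. Phytotoxicity was rated 14 days later on a 0 (no damage) to 100 (complete death) scale.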

## COc1c(Cl)cc(F)c(-n2c(=O)cc(C(F)(F)F)n(C)c2=O)c1NC(=O)c1ccc(C(F)(F)F)cc1 [2-33]
[1]; 63 g ai/ha
  Pre-emerge Herbicidal Activity, phytotoxicity rating (0-100), ECHCG: 30
[1]; 250 g ai/ha
  Pre-emerge Herbicidal Activity, phytotoxicity rating (0-100), ECHCG: 95
[2]; 63 g ai/ha
  Pre-emerge Herbicidal Activity, phytotoxicity rating (0-100), SETVI: 100
[2]; 250 g ai/ha
  Pre-emerge Herbicidal Activity, phytotoxicity rating (0-100), SETVI: 100
[3]; 63 g ai/ha
  Pre-emerge Herbicidal Activity, phytotoxicity rating (0-100), DIGSA: 100
[3]; 250 g ai/ha
  Pre-emerge Herbicidal Activity, phytotoxicity rating (0-100), DIGSA: 100
[4]; 63 g ai/ha
  Pre-emerge Herbicidal Activity, phytotoxicity rating (0-100), ABUTH: 100
[4]; 250 g ai/ha
  Pre-emerge Herbicidal Activity, phytotoxicity rating (0-100), ABUTH: 100
[5]; 63 g ai/ha
  Pre-emerge Herbicidal Activity, phytotoxicity rating (0-100), CASOB: 100
[5]; 250 g ai/ha
  Pre-emerge Herbicidal Activity, phytotoxicity rating (0-100), CASOB: 100
[6]; 63 g ai/ha
  Pre-emerge Herbicidal Activity, phytotoxicity rating (0-100), SORHA: 60
[6]; 250 g ai/ha
  Pre-emerge Herbicidal Activity, phytotoxicity rating (0-100), SORHA: 90
[7]; 63 g ai/ha
  Pre-emerge Herbicidal Activity, phytotoxicity rating (0-100), IPOHE: 100
[7]; 250 g ai/ha
  Pre-emerge Herbicidal Activity, phytotoxicity rating (0-100), IPOHE: 100
[8]; 63 g ai/ha
  Pre-emerge Herbicidal Activity, phytotoxicity rating (0-100), CHEAL: 100
[8]; 250 g ai/ha
  Pre-emerge Herbicidal Activity, phytotoxicity rating (0-100), CHEAL: 100
[9]; 63 g ai/ha
  Pre-emerge phytotoxicity rating (0-100), crop damage, RICE: 70
[9]; 250 g ai/ha
  Pre-emerge phytotoxicity rating (0-100), crop damage, RICE: 80
[10]; 63 g ai/ha
  Pre-emerge phytotoxicity rating (0-100), crop damage, CORN: 70
[10]; 250 g ai/ha
  Pre-emerge phytotoxicity rating (0-100), crop damage, CORN: 90
[11]; 63 g ai/ha
  phytotoxicity rating ECHCG: 10
[11]; 250 g ai/ha
  phytotoxicity rating ECHCG: 60
[12]; 63 g ai/ha
  phytotoxicity rating SETVI: 50
[12]; 250 g ai/ha
  phytotoxicity rating SETVI: 40
[13]; 63 g ai/ha
  phytotoxicity rating DIGSA: 0
[13]; 250 g ai/ha
  phytotoxicity rating DIGSA: 40
[14]; 63 g ai/ha
  phytotoxicity rating ABUTH: 100
[14]; 250 g ai/ha
  phytotoxicity rating ABUTH: 100
[15]; 63 g ai/ha
  phytotoxicity rating CASOB: 70
[15]; 250 g ai/ha
  phytotoxicity rating CASOB: 80
[16]; 63 g ai/ha
  phytotoxicity rating SORHA: 0
[16]; 250 g ai/ha
  phytotoxicity rating SORHA: 20
[17]; 63 g ai/ha
  phytotoxicity rating IPOHE: 100
[17]; 250 g ai/ha
  phytotoxicity rating IPOHE: 100
[18]; 63 g ai/ha
  phytotoxicity rating CHEAL: 80
[18]; 250 g ai/ha
  phytotoxicity rating CHEAL: 95
[19]; 63 g ai/ha
  phytotoxicity rating AMARE: 90
[19]; 250 g ai/ha
  phytotoxicity rating AMARE: 95
[20]; 63 g ai/ha
  phytotoxicity rating AMBEL: 70
[20]; 250 g ai/ha
  phytotoxicity rating AMBEL: 95
[21]; 63 g ai/ha
  phytotoxicity rating RICE: 20
[21]; 250 g ai/ha
  phytotoxicity rating RICE: 60
[22]; 63 g ai/ha
  phytotoxicity rating CORN: 10
[22]; 250 g ai/ha
  phytotoxicity rating CORN: 40
[23]; 63 g ai/ha
  Pre-emerge Herbicidal Activity, phytotoxicity rating (0-100), AMARE: 100
[23]; 250 g ai/ha
  Pre-emerge Herbicidal Activity, phytotoxicity rating (0-100), AMARE: 100
